In patent US7307044B2, “3-biphenyl-substituted-3-substituted-4-ketolactam and ketolactone and their utilization as pesticide” (Bayer CropScience AG, priority 2001, dated 2007):

Key:
Assay type in all cases: in vivo
Alopecurus [1] = assay: Post-emergence test (greenhouse); conditions: after three weeks
Method: (§1) Solvent: 5 parts by weight of acetone
(§2) Emulsifier: 1 part by weight of alkylaryl polyglycol ether
(§3) To produce a suitable preparation of active compound, 1 part by weight of active compound is mixed with the stated amount of solvent, the stated amount of emulsifier is added and the concentrate is diluted with water to the desired concentration.
(§4) Test plants of a height of 5-15 cm are sprayed with the preparation of active compound such that the particular amounts of active compound desired are applied per unit area. The concentration of the spray liquor is chosen such that the particular amounts of active compound desired are applied in 1000 l of water/ha.
(§5) After three weeks, the degree of damage to the plants is rated in % damage in comparison to the development of the untreated control.
(§6) The figures denote: • 0%=no effect (like untreated control) • 100%=total destruction

Avena fatua [2] = assay: Post-emergence test (greenhouse); conditions: after three weeks
Method: as §1, §2, §3, §4, §5, §6

Sinapis = assay: Post-emergence test (greenhouse); conditions: 250 g ai/ha, after three weeks
Method: as §1, §2, §3, §4, §5, §6

Setaria [3] = assay: Post-emergence test (greenhouse); conditions: after three weeks
Method: as §1, §2, §3, §4, §5, §6

Echinochloa [4] = assay: Post-emergence test (greenhouse); conditions: after three weeks
Method: as §1, §2, §3, §4, §5, §6

Alopecurus [5] = assay: Pre-emergence test (greenhouse); conditions: 250 g ai/ha, after three weeks
Method: (§7) Pre-Emergence Test Solvent: 5 parts by weight of acetone Emulsifier: 1 part by weight of alkylaryl polyglycol ether To produce a suitable preparation of active compound, 1 part by weight of active compound is mixed with the stated amount of solvent, the stated amount of emulsifier is added and the concentrate is diluted with water to the desired concentration. Seeds of the test plants are sewn in normal soil. After about 24 hours, the soil is sprayed with the preparation of active compound such that the particular amounts of active compound desired are applied per unit area. The concentration of the spray liquor is chosen such that the particular amounts of active compound desired are applied in 1000 l of water/ha. After three weeks, the degree of damage to the plants is rated in % damage in comparison to the development of the untreated control. The figures denote: • 0%=no effect (like untreated control) • 100%=total destruction

Amaranthus [6] = assay: Pre-emergence test (greenhouse); conditions: 250 g ai/ha, after three weeks
Method: as §7

Avena fatua [7] = assay: Pre-emergence test (greenhouse); conditions: 250 g ai/ha, after three weeks
Method: as §7

Setaria [8] = assay: Pre-emergence test (greenhouse); conditions: 250 g ai/ha, after three weeks
Method: as §7

Echinochloa [9] = assay: Pre-emergence test (greenhouse); conditions: 250 g ai/ha, after three weeks
Method: as §7

Plasmopara viticola = assay: Plasmopara test (grapevine)/protective; conditions: protective, evaluation 6 days after inoculation
Method: Plasmopara Test (Grapevine)/Protective Solvents: 24.5 parts by weight of acetone • 24.5 parts by weight of dimethylacetamide Emulsifier: 1.0 part by weight of alkylaryl polyglycol ether To produce a suitable preparation of active compound, 1 part by weight of active compound is mixed with the stated amounts of solvent and emulsifier, and the concentrate is diluted with water to the desired concentration. To test for protective activity, young plants are sprayed with the preparation of active compound at the stated application rate. After the spray coating has dried on, the plants are inoculated with an aqueous spore suspension of Plasmopara viticola and then remain in an incubation cabin at 20° C. and 100% relative atmospheric humidity for 1 day. The plants are then placed in a greenhouse at about 21° C. and about 90% atmospheric humidity for 4 days. The plants are then moistened and placed in an incubation cabin for 1 day.

Digitaria = assay: Post-emergence test (greenhouse); conditions: 125 g ai/ha, after three weeks
Method: as §1, §2, §3, §4, §5, §6

Sugar beet = assay: Post-emergence test (greenhouse); conditions: 125 g ai/ha, after three weeks
Method: as §1, §2, §3, §4, §5, §6

[10] = test system: caterpillars of the armyworm (Spodoptera frugiperda); assay: Spodoptera frugiperda test; conditions: 500 ppm, cabbage leaves dipped
Method: (§8) Spodoptera frugiperda Test Solvent: 7 parts by weight of dimethylformamide Emulsifier: 2 parts by weight of alkylaryl polyglycol ether To produce a suitable preparation of active compound, 1 part by weight of active compound is mixed with the stated amounts of solvent and emulsifier, and the concentrate is diluted with emulsifier-containing water to the desired concentration. Cabbage leaves (Brassica oleracea) are treated by being dipped into the preparation of active compound of the desired concentration and are populated with caterpillars of the armyworm (Spodoptera frugiperda) while the leaves are still moist. After the desired period of time, the kill in % is determined. 100% means that all caterpillars have been killed; 0% means that none of the caterpillars have been killed.

[11] = test system: apple scab pathogen Venturia inaequalis; assay: Venturia test (apple)/protective; conditions: protective, evaluation 10 days after inoculation
Method: Venturia Test (Apple)/Protective Solvents: 24.5 parts by weight of acetone • 24.5 parts by weight of dimethylacetamide Emulsifier: 1.0 part by weight of alkylaryl polyglycol ether To produce a suitable preparation of active compound, 1 part by weight of active compound is mixed with the stated amounts of solvent and emulsifier, and the concentrate is diluted with water to the desired concentration. To test for protective activity, young plants are sprayed with the preparation of active compound at the stated application rate. After the spray coating has dried on, the plants are inoculated with an aqueous conidia suspension of the apple scab pathogen Venturia inaequalis and then remain in an incubation cabin at about 20° C. and 100% relative atmospheric humidity for 1 day. The plants are then placed in a greenhouse at about 21° C. and a relative atmospheric humidity of about 90%.

[12] = test system: greenhouse red spider mite (Tetranychus urticae); assay: Tetranychus test (OP-resistent/dip treatment); conditions: 100 ppm, bean plants dipped
Method: Tetranychus Test (OP-Resistent/Dip Treatment)
Solvent: 7 parts by weight of dimethylformamide
Emulsifier: 2 parts by weight of alkylaryl polyglycol ether
To produce a suitable preparation of active compound, 1 part by weight of active compound is mixed with the stated amounts of solvent and emulsifier, and the concentrate is diluted with emulsifier-containing water to the desired concentration.
Bean plants (Phaseolus vulgaris) which are heavily infested by all stages of the greenhouse red spider mite (Tetranychus urticae) are dipped into a preparation of active compound of the desired concentration.
After the desired period of time, the effect in % is determined. 100% means that all spider mites have been killed; 0% means that none of the spider mites have been killed.

[13] = test system: green peach aphid (Myzus persicae); assay: Myzus test; conditions: 500 ppm, cabbage leaves dipped
Method: as §8, with “Myzus” for “Spodoptera frugiperda”, “oleracea) which are heavily infested by the green peach aphid (Myzus persicae)” for “oleracea)”, “concentration.” for “concentration and are populated with caterpillars of the armyworm (Spodoptera frugiperda) while the leaves are still moist.”, “aphids” for “caterpillars”

[14] = test system: larvae of the mustard beetle (Phaedon cochleariae); assay: Phaedon larvae test; conditions: 500 ppm, cabbage leaves dipped
Method: as §8, with “Phaedon Larvae Test” for “Spodoptera frugiperda Test”, “with larvae” for “with caterpillars”, “the mustard beetle (Phaedon cochleariae)” for “the armyworm (Spodoptera frugiperda)”, “all beetle larvae” for “all caterpillars”, “the beetle larvae” for “the caterpillars”

Amaranthus [15] = assay: Post-emergence test (greenhouse); conditions: 250 g ai/ha, after three weeks
Method: as §1, §2, §3, §4, §5, §6

| SMILES | degree of damage to the plants in % damage (Alopecurus [1]; 250 g ai/ha) | degree of damage to the plants in % damage (Avena fatua [2]; 250 g ai/ha) | degree of damage to the plants in % damage (Sinapis) | degree of damage to the plants in % damage (Setaria [3]; 250 g ai/ha) | degree of damage to the plants in % damage (Echinochloa [4]; 250 g ai/ha) | degree of damage to the plants in % damage (Digitaria) | degree of damage to the plants in % damage (Alopecurus [1]; 125 g ai/ha) | degree of damage to the plants in % damage (Avena fatua [2]; 125 g ai/ha) | degree of damage to the plants in % damage (Setaria [3]; 125 g ai/ha) | degree of damage to the plants in % damage (Sugar beet) | degree of damage to the plants in % damage (Echinochloa [4]; 125 g ai/ha) | Kill rate in % after 7 d [10] | Kill rate in % after 7 d [12] | Kill rate in % after 7 d [14] | degree of damage to the plants in % damage (Amaranthus [15]) | also measured |
| --- | --- | --- | --- | --- | --- | --- | --- | --- | --- | --- | --- | --- | --- | --- | --- | --- |
| COC1CCC2(CC1)NC(=O)C(Cl)(c1c(C)cc(-c3cccc(Cl)c3)cc1C)C2=O (stereo not shown) [Ex. I-1-4] | 100% | 100% | 70% | 100% | 100% | – | – | – | – | – | – | – | – | – | – | degree of damage to the plants in % damage (Alopecurus [5]): 95%; degree of damage to the plants in % damage (Amaranthus [6]): 90%; degree of damage to the plants in % damage (Avena fatua [7]): 90%; degree of damage to the plants in % damage (Setaria [8]): 100%; degree of damage to the plants in % damage (Echinochloa [9]): 100% |
| Cc1ccc(-c2ccc(Cl)cc2)cc1C1(Cl)C(=O)NC(C)(C)C1=O (stereo not shown) [Ex. I-1-1] | – | – | – | – | – | 90% | 95% | 100% | 100% | 0% | 100% | 100% | 100% | 100% | – | Emax at 100 g/ha (Plasmopara viticola; Plasmopara viticola, 144 h, read-out: % efficacy): 100%; Emax at 100 g/ha ([11]; Venturia inaequalis, 240 h, read-out: % efficacy): 97%; Kill rate in % after 6 d [13]: 95% |
| CC1(C)NC(=O)C(Cl)(c2cc(-c3ccc(Cl)cc3)ccc2Cl)C1=O (stereo not shown) [Ex. I-1-2] | – | – | – | – | – | 100% | 90% | 95% | 90% | 0% | 100% | 100% | 100% | 100% | – | % efficacy (Plasmopara viticola; 100 g/ha): 100%; % efficacy ([11]; 100 g/ha): 96% |
| Cc1cc(-c2ccc(Cl)cc2)cc(Cl)c1C1(Cl)C(=O)NC2(CCCOC2)C1=O (stereo not shown) [Ex. I-1-8] | 95% | 95% | 80% | 100% | 100% | – | – | – | – | – | – | – | 98% | – | 70% | – |
| CCOC1CCC2(CC1)NC(=O)C(Cl)(c1c(C)cc(-c3ccc(Cl)cc3)cc1CC)C2=O (stereo not shown) [Ex. I-1-10] | 100% | 100% | 80% | 100% | 100% | – | – | – | – | – | – | – | – | – | 80% | – |
